According to US6344456B1, “Piperazinone derivatives and their uses” (Laboratoire L. Lafon, priority 1998, dated 2002):
Like-named read-outs stand apart in the source and are kept apart here.

Key:
Guinea Pig Platelets = assay: In vitro inhibition of collagen-induced platelet aggregation, guinea pig platelet-rich plasma; assay type: cell-based; conditions: guinea pig PRP, collagen 1 μg/ml, 3 minutes of contact at 37° C.
Protocol: (§1) A study of the inhibitory activity of the compounds of formula I on platelet aggregation was carried out in vitro, i.e. by direct contact of solutions of variable concentrations of the compounds with platelets freshly separated from a sample of whole blood, taken under standardized conditions, from laboratory animals (guinea pigs) and from healthy human subjects who have not received any substances or drugs that might interfere with blood clotting. The anti-platelet-aggregating activity was also studied ex vivo/vitro, i.e. after administration of the substances claimed in guinea pigs to measure the intensity and duration of the anti-aggregating action induced by the fraction of the test product absorbed and circulating in the blood.
1.1. Studies on Guinea Pig Platelets
Blood is taken by intracardiac puncture from male Dunkin-Hartley guinea pigs (weighing about 330 g), at a rate of 4.5 ml per 0.5 ml of trisodium citrate (concentration of the aqueous solution: 1.55%) in order to prevent all trace of clotting. The platelet-rich plasma (PRP) is obtained by centrifuging the tubes of whole blood for 15 minutes at 150 g.
The PRPs are collected as. “pools”. The platelets contained in these pools are counted using a Coulter ZM haematology automatic device: if necessary, a dilution is carried out in order for the platelet concentration in the plasma to be between 200,000 and 400,000 platelets/mm^3. Simultaneously, other samples of these pools serve to prepare the platelet-poor plasma (PPP) by centrifugation at 1,500 g for 15 minutes.
The kinetic study of the platelet aggregation is carried out by adding a collagen solution (1 μg/ml) to a volume of PRP, using a Chrono-log Corporation aggregometer (490-D1 or 560 VS) which uses an optical detection of the appearance of the thrombus.
The measurements of the aggregation inhibition are carried out after 3 minutes of contact at 37° C. with agitation.

[1] = test system: platelet aggregation induced by collagen; assay: Ex vivo/vitro anti-platelet-aggregating activity in guinea pigs after gastric administration; set-up: species or system guinea pig; conditions: for % of g.r. inhibition guinea pig ex vivo d = 150 mg/kg −1 h: administered 1 h before blood is taken; for % of g.r. inhibition guinea pig ex vivo d = 150 mg/kg −2 h: administered 2 h before blood is taken
Protocol: as §1
2. ex vivo/vitro Pharmacological Study in Guinea Pigs
Evaluation of the anti-platelet-aggregating activity of the compounds is carried out in the same guinea pigs as those mentioned above (Dunkin-Hartley strain). The administration of each product in a range of doses from 150 mg/kg to 10 mg/kg and of each vehicle (5 ml/kg) is carried out via the gastric route (g.r.) 1h or 2h or 4h or 6h or 8h or 12h before blood is taken from the guinea pigs fasted the day before. The allocation of the treatments to the animals is random.
The blood is taken and then treated under the same conditions as those described above for the in vitro studies.
The results of the inhibition of the platelet aggregation obtained for each test concentration make it possible to calculate the IC50 concentration of each test product and the kinetics of the inhibitory effect and its duration of action.

Human Platelets = assay: In vitro inhibition of collagen-induced platelet aggregation, human platelet-rich plasma; assay type: cell-based; conditions: human PRP, collagen 5 μg/ml, 3 minutes of contact at 37° C., read-out: IC50 (M) in vitro Man
Protocol: A study of the inhibitory activity of the compounds of formula I on platelet aggregation was carried out in vitro, i.e. by direct contact of solutions of variable concentrations of the compounds with platelets freshly separated from a sample of whole blood, taken under standardized conditions, from laboratory animals (guinea pigs) and from healthy human subjects who have not received any substances or drugs that might interfere with blood clotting. The anti-platelet-aggregating activity was also studied ex vivo/vitro, i.e. after administration of the substances claimed in guinea pigs to measure the intensity and duration of the anti-aggregating action induced by the fraction of the test product absorbed and circulating in the blood. 1.2 Study on Human Platelets Venous blood is taken from a group of ten healthy human subjects of the same age, by puncture into a vein of the fold of the elbow and is collected in a glass tube containing aqueous 0.129 M sodium citrate solution (1 volume of citrate solution per 9 volumes of blood). Each tube is then centrifuged a first time at 20° C. and 100 g for 15 minutes in order to obtain the platelet-rich plasma (PRP); after removing this PRP, the tube is again centrifuged at 2,000 g for 15 minutes in order this time to remove the platelet-poor plasma (PPP). For each identified sample of PRP, the platelets are counted using a Coulter ZM counter. […] A control test intended to check the possible effect of the solvents (reference value) on the platelet aggregation is introduced into each measurement series, and is measured after 3 minutes of contact at 37° C. with agitation.

[2] = Cavia porcellus, Platelet, 0.05 h

Molecule	IC50 (Guinea Pig Platelets) [µM]	% of g.r. inhibition guinea pig ex vivo d = 150 mg/kg −1 h [1] [%]	% of g.r. inhibition guinea pig ex vivo d = 150 mg/kg −2 h [1] [%]	IC50 (Human Platelets; Platelet, 0.05 h) [M]	IC50 (Guinea Pig Platelets; [2]) [µM]	IC50 (Human Platelets) [M]	anti-aggregating action ex-vivo in guinea pigs, oral dose 10 mg/kg, 1h ([1]; 10 mg/kg, administered 1h before the aggregation test) [%]	anti-aggregating action ex-vivo in guinea pigs, oral dose 10 mg/kg, 2h ([1]; 10 mg/kg, administered 2h before the aggregation test) [%]
CCOC(=O)CCNC(=O)CN1CCN(c2ccc(C(N)=NO)cc2)CC1=O [Example 1, Ethyl 3-{[12-(4-{4-[amino(hydroxyimino)methyl]phenyl}-2-oxopiperazino)acetyl]amino}propanoate]	> 1000	−72	−73					
CCOC(=O)CC(CCc1ccccc1)NC(=O)CN1CCN(c2ccc(C(=N)N)cc2)CC1=O (centres unmarked) [Example 22, Ethyl 3-{[2-(4-{4-[amino(imino)methyl]phenyl}-2-oxopiperazino)acetyl]amino}-5-phenylpentanoate acetate]				7.1e-05	0.51			
3-{[2-(4-{4-[amino(imino)methyl]phenyl}-2-oxopiperazino)acetyl]amino}-3-(pyridyl)propanoic acid acetate [Example 21]	0.16	−78	−79			8.6e-07		
CC(=O)O.CCOC(=O)CCNC(=O)CN1CCN(c2ccc(C(=N)N)cc2)C(=O)C1 [Example 27, Ethyl 3-{[2-(4-{4-[amino(imino)methyl]phenyl}-3-oxopiperazino)acetyl]amino}propanoate acetate]		−8	−9		38			
Cl.N=C(N)c1ccc(N2CCN(CC(=O)NC(CC(=O)O)c3ccc4c(c3)OCO4)CC2=O)cc1 (centres unmarked) [Example 30, 3-{[2-(4-{4-[amino(imino)methyl]phenyl}-3-oxopiperazino)acetyl]amino}-3-(1,3-benzodioxol-5-yl)propanoic acid hydrochloride]		−14	−17	1.2e-06	15			
Cl.N=C(N)c1ccc(N2CCN(CC(=O)NC(CC(=O)O)c3ccc4c(c3)OCO4)C(=O)C2)cc1 (centres unmarked) [Example 19, 3-{[2-(4-{4-[amino(imino)methyl]phenyl}-2-oxopiperazino)acetyl]amino}-3-(1,3-benzodioxol-5-yl)propanoic acid hydrochloride]		−69	−78	3.4e-07	0.15		57	24
Cl.N=C(N)c1ccc(N2CCN(CC(=O)NCCC(=O)O)C(=O)C2)cc1 [Example 17, 3-{[2-(4-{4-[amino(imino)methyl]phenyl}-2-oxopiperazino)acetyl]amino}propanoic acid hydrochloride]		−43	−38	5.2e-06	4.8			
Ethyl 3-{[2-(4-{4-[amino(imino)methyl]phenyl}-2-oxopiperazino)-acetyl]amino}-3-(pyridyl)propanoate acetate [Example 20]	0.63	−65	−64			2.8e-05		
CC(=O)O.CCOC(=O)CC(NC(=O)CN1CCN(c2ccc(C(=N)N)cc2)CC1=O)c1ccc2c(c1)OCO2 (centres unmarked) [Example 18, Ethyl 3-{[2-(4-{4-[amino(imino)methyl]phenyl}-2-oxopiperazino)acetyl]amino}-3-(1,3-benzodioxol-5-yl)propanoate acetate]		−70	−69	8.1e-05	0.2			
Cl.N=C(N)c1ccc(N2CCN(CC(=O)NCCC(=O)O)CC2=O)cc1 [Example 28, 3-{[2-(4-{4-[amino(imino)methyl]phenyl}-3-oxopiperazino)acetyl]amino}propanoic acid hydrochloride]		−28	−23	1.4e-06	16			
